Test results from US8802597B2, “Herbicidal pyrimidines” (E I du Pont de Nemours and Company, priority 2003, dated 2014).
Read-outs that look alike come from different tables or passages of the source.

Key:
Type in all cases: in vivo
[1] = system: crabgrass (Digitaria sanguinalis); test: Test B pre/postemergence; conditions: for pest or weed control at 500 g/ha: 500 g ai/ha
Summary of the method: (§1)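 Greenhouse whole-plant test; surfactant-containing non-phytotoxic solvent formulation; pre- and postemergence applications made simultaneously; post plants 2–18 cm, 1- to 4-leaf; visual scoring at 13–15 days on 0–100 scale relative to controls.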

[2] = system: giant foxtail (Setaria faberii); test: Test B pre/postemergence; conditions: for pest or weed control at 500 g/ha: Setaria faberi, 500 g ai/ha
Summary of the method: as §1

[3] = system: lambsquarters (Chenopodium album); test: Test B pre/postemergence; conditions: Chenopodium album; for pest or weed control at 125 g/ha: 125 g ai/ha; for pest or weed control at 500 g/ha: 500 g ai/ha
Summary of the method: as §1

[4] = system: corn (Zea mays); test: Test B pre/postemergence
Summary of the method: as §1

[5] = system: Surinam grass (Brachiaria decumbens); test: Test B pre/postemergence; conditions: Urochloa decumbens; for pest or weed control at 125 g/ha: 125 g ai/ha; for pest or weed control at 500 g/ha: 500 g ai/ha
Summary of the method: as §1

[6] = system: cocklebur (Xanthium strumarium); test: Test B pre/postemergence; conditions: Xanthium strumarium; for pest or weed control at 125 g/ha: 125 g ai/ha; for pest or weed control at 500 g/ha: 500 g ai/ha
Summary of the method: as §1

[7] = system: pigweed (Amaranthus retroflexus); test: Test B pre/postemergence; conditions: Amaranthus retroflexus; for pest or weed control at 125 g/ha: 125 g ai/ha; for pest or weed control at 500 g/ha: 500 g ai/ha
Summary of the method: as §1

[8] = system: barnyardgrass (Echinochloa crus-galli); test: Test B pre/postemergence; conditions: for pest or weed control at 500 g/ha: 500 g ai/ha
Summary of the method: as §1

[9] = system: wheat (Triticum aestivum); test: Test B pre/postemergence; conditions: for plant injury at 500 g/ha: 500 g ai/ha
Summary of the method: as §1

[10] = system: morningglory (Ipomoea coccinea); test: Test B pre/postemergence; conditions: for pest or weed control at 500 g/ha: 500 g ai/ha
Summary of the method: as §1

[11] = system: velvetleaf (Abutilon theophrasti); test: Test B pre/postemergence; conditions: Abutilon theophrasti; for pest or weed control at 125 g/ha: 125 g ai/ha; for pest or weed control at 500 g/ha: 500 g ai/ha
Summary of the method: as §1

[12] = system: blackgrass (Alopecurus myosuroides); test: Test B postemergence
Summary of the method: as §1

[13] = system: wild oat (Avena fatua); test: Test B postemergence
Summary of the method: as §1

[14] = system: duck salad (Heteranthera limosa); test: Test B flooded paddy test; conditions: Heteranthera limosa, Flood, 1000 g ai/ha; scale 0 to 100; read-out: Plant response rating, Ducksalad
Summary of the method: (§2)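 Visual injury scoring (0 = no effect, 100 = complete control) versus controls made 13 to 15 days after treatment in the greenhouse. Test species were grown in flooded paddy to the 2-leaf stage: rice, barnyardgrass, umbrella sedge, duck salad.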

[15] = system: umbrella sedge (Cyperus difformis); test: Test B flooded paddy test; conditions: Cyperus difformis, Flood, 1000 g ai/ha; scale 0 to 100; read-out: Plant response rating, Sedge, Umbrella
Summary of the method: as §2

[16] = system: barnyardgrass (Echinochloa crus-galli); test: Test B flooded paddy test; conditions: Echinochloa crus-galli, Flood, 1000 g ai/ha; scale 0 (no effect) to 100 (complete control); read-out: Plant response rating, Barnyardgrass
Summary of the method: as §2

[17] = system: rice (Oryza sativa); test: Test B flooded paddy test; conditions: Oryza sativa, Flood, 1000 g ai/ha; scale 0 to 100; read-out: Plant response rating, Rice
Summary of the method: as §2

[18] = Postemergence, 125 g ai/ha, scale 0 to 100 (0 no effect, 100 complete control)
[19] = Preemergence, 125 g ai/ha, scale 0 to 100 (0 no effect, 100 complete control)
[20] = 125 g ai/ha, scale 0 to 100 (0 no effect, 100 complete control)

SMILES: Nc1nc(C2CC2)nc(C(=O)O)c1Br [Compound 8]
- pest or weed control at 500 g/ha ([1]; Digitaria sanguinalis, post-emergence, Postemergence, scale 0 to 100, read-out: Plant response rating, Crabgrass): 90%
- pest or weed control at 125 g/ha ([1]; Digitaria sanguinalis, pre-emergence, Preemergence, 125 g ai/ha, scale 0 to 100 (0 no effect, 100 complete control), read-out: Plant response rating, Crabgrass): 80%
- pest or weed control at 500 g/ha ([1]; Digitaria sanguinalis, pre-emergence, Preemergence, scale 0 to 100 (0 no effect, 100 complete control), read-out: Crabgrass plant response rating): 90%
- Crabgrass plant response rating [1, 18]: 80
- Foxtail, Giant plant response rating [2, 18]: 80
- Plant response rating, Foxtail, Giant [2, 19]: 50
- pest or weed control at 500 g/ha ([2]; post-emergence, Postemergence, scale 0 to 100, read-out: Plant response rating, Foxtail, Giant): 90%
- pest or weed control at 500 g/ha ([2]; pre-emergence, Preemergence, scale 0 to 100 (0 no effect, 100 complete control), read-out: Foxtail, Giant plant response rating): 90%
- pest or weed control at 125 g/ha ([3]; post-emergence, Postemergence, scale 0 to 100 (0 no effect, 100 complete control), read-out: Lambsquarters plant response rating): 100%
- pest or weed control at 500 g/ha ([3]; post-emergence, Postemergence, scale 0 to 100, read-out: Plant response rating, Lambsquarters): 100%
- pest or weed control at 125 g/ha ([3]; pre-emergence, Preemergence, scale 0 to 100 (0 no effect, 100 complete control), read-out: Plant response rating, Lambsquarters): 90%
- pest or weed control at 500 g/ha ([3]; pre-emergence, Preemergence, scale 0 to 100 (0 no effect, 100 complete control), read-out: Lambsquarters plant response rating): 100%
- Corn plant response rating [4, 18]: 70
- Plant response rating, Corn [4, 19]: 90
- Corn plant response rating (crop injury, 0 = no effect, 100 = complete kill) at 500 g/ha ([4]; Zea mays, post-emergence, Postemergence, 500 g ai/ha, scale 0 to 100): 90%
- plant injury at 500 g/ha ([4]; Zea mays, pre-emergence, Preemergence, 500 g ai/ha, scale 0 to 100 (0 no effect, 100 complete control), read-out: Corn plant response rating): 90%
- pest or weed control at 125 g/ha ([5]; post-emergence, Postemergence, scale 0 to 100 (0 no effect, 100 complete control), read-out: Surinam Grass plant response rating): 80%
- pest or weed control at 500 g/ha ([5]; post-emergence, Postemergence, scale 0 to 100, read-out: Plant response rating, Surinam Grass): 90%
- pest or weed control at 125 g/ha ([5]; pre-emergence, Preemergence, scale 0 to 100 (0 no effect, 100 complete control), read-out: Plant response rating, Surinam Grass): 60%
- pest or weed control at 500 g/ha ([5]; pre-emergence, Preemergence, scale 0 to 100 (0 no effect, 100 complete control), read-out: Surinam Grass plant response rating): 90%
- pest or weed control at 125 g/ha ([6]; post-emergence, Postemergence, scale 0 to 100 (0 no effect, 100 complete control), read-out: Cocklebur plant response rating): 100%
- pest or weed control at 500 g/ha ([6]; post-emergence, Postemergence, scale 0 to 100, read-out: Plant response rating, Cocklebur): 100%
- pest or weed control at 125 g/ha ([6]; pre-emergence, Preemergence, scale 0 to 100 (0 no effect, 100 complete control), read-out: Plant response rating, Cocklebur): 90%
- pest or weed control at 500 g/ha ([6]; pre-emergence, Preemergence, scale 0 to 100 (0 no effect, 100 complete control), read-out: Cocklebur plant response rating): 100%
- pest or weed control at 125 g/ha ([7]; post-emergence, Postemergence, scale 0 to 100 (0 no effect, 100 complete control), read-out: Pigweed plant response rating): 100%
- pest or weed control at 500 g/ha ([7]; post-emergence, Postemergence, scale 0 to 100, read-out: Plant response rating, Pigweed): 100%
- pest or weed control at 125 g/ha ([7]; pre-emergence, Preemergence, scale 0 to 100 (0 no effect, 100 complete control), read-out: Plant response rating, Pigweed): 100%
- pest or weed control at 500 g/ha ([7]; pre-emergence, Preemergence, scale 0 to 100 (0 no effect, 100 complete control), read-out: Pigweed plant response rating): 100%
- pest or weed control at 125 g/ha ([8]; Echinochloa crus-galli, post-emergence, Postemergence, 125 g ai/ha, scale 0 to 100 (0 no effect, 100 complete control), read-out: Barnyardgrass plant response rating): 90%
- pest or weed control at 500 g/ha ([8]; Echinochloa crus-galli, post-emergence, Postemergence, scale 0 to 100, read-out: Plant response rating, Barnyardgrass): 90%
- pest or weed control at 500 g/ha ([8]; Echinochloa crus-galli, pre-emergence, Preemergence, scale 0 to 100 (0 no effect, 100 complete control), read-out: Barnyardgrass plant response rating): 90%
- Plant response rating, Barnyardgrass [8, 19]: 70
- Wheat plant response rating [9, 18]: 0
- plant injury at 500 g/ha ([9]; Triticum aestivum, post-emergence, Postemergence, scale 0 to 100, read-out: Plant response rating, Wheat): 0%
- plant injury at 125 g/ha ([9]; Triticum aestivum, pre-emergence, Preemergence, 125 g ai/ha, scale 0 to 100 (0 no effect, 100 complete control), read-out: Plant response rating, Wheat): 60%
- plant injury at 500 g/ha ([9]; Triticum aestivum, pre-emergence, Preemergence, scale 0 to 100 (0 no effect, 100 complete control), read-out: Wheat plant response rating): 80%
- pest or weed control at 125 g/ha ([10]; Ipomoea, post-emergence, Postemergence, 125 g ai/ha, scale 0 to 100 (0 no effect, 100 complete control), read-out: Morningglory plant response rating): 100%
- pest or weed control at 500 g/ha ([10]; Ipomoea, post-emergence, Postemergence, scale 0 to 100, read-out: Plant response rating, Morningglory): 100%
- pest or weed control at 500 g/ha ([10]; Ipomoea, pre-emergence, Preemergence, scale 0 to 100 (0 no effect, 100 complete control), read-out: Morningglory plant response rating): 100%
- Plant response rating, Morningglory [10, 19]: 100
- pest or weed control at 125 g/ha ([11]; post-emergence, Postemergence, scale 0 to 100 (0 no effect, 100 complete control), read-out: Velvetleaf plant response rating): 80%
- pest or weed control at 500 g/ha ([11]; post-emergence, Postemergence, scale 0 to 100, read-out: Plant response rating, Velvetleaf): 100%
- pest or weed control at 125 g/ha ([11]; pre-emergence, Preemergence, scale 0 to 100 (0 no effect, 100 complete control), read-out: Plant response rating, Velvetleaf): 80%
- pest or weed control at 500 g/ha ([11]; pre-emergence, Preemergence, scale 0 to 100 (0 no effect, 100 complete control), read-out: Velvetleaf plant response rating): 100%
- Blackgrass plant response rating [12, 20]: 0
- pest or weed control at 500 g/ha ([12]; Alopecurus myosuroides, post-emergence, 500 g ai/ha, scale 0 to 100, read-out: Plant response rating, Blackgrass): 0%
- Oat, Wild plant response rating [13, 20]: 0
- pest or weed control at 500 g/ha ([13]; Avena fatua, post-emergence, 500 g ai/ha, scale 0 to 100, read-out: Plant response rating, Oat, Wild): 0%
- pest or weed control at 1000 g/ha [14]: 90%
- pest or weed control at 1000 g/ha [15]: 40%
- pest or weed control at 1000 g/ha [16]: 70%
- plant injury at 1000 g/ha [17]: 60%
